Data set [1] relates to Adherent-Invasive E. coli strain LF82 adhesion to intestinal epithelial cells T84. The data set can be described thus: Adhesion of Adherent-Invasive E. coli LF82 to intestinal epithelial cells T84 in presence of monovalent compounds (pre-, co- and post-incubation). The format is cell-based. The protocol:
E. coli strain LF82 was isolated from a chronic ileal lesion of a patient with Crohn's disease (CD). Bacteria were grown routinely in Luria-Bertani (LB) broth overnight at 37° C. Intestinal epithelial cells T84 derived from colonic adenocarcinoma were maintained in an atmosphere containing 5% CO2 at 37° C. in DMEM/F12 (50/50) medium supplemented with 10% (v/v) heat-inactivated fetal calf serum (FCS), 1% L-glutamine, 100 000 U·l^−1 penicillin, 100 mg·l^−1 streptomycin, 25 μg·l^−1 amphotericin B.
T84 were seeded in 48-well plates at a concentration of 1.5×10^5 cells per well and grown for 48 h. AIEC LF82 bacteria were incubated 1 h with monovalent compounds prior the cell infection (pre-incubation protocol) or they were added simultaneously onto the cells (co-incubation protocol) in complete medium without antibiotics, containing heat inactivated fetal calf serum (FCS). Monovalent compound 10 was tested at a dose of 100; 10; 1 (and 0.1) μM, compound 5 was tested at a dose of 500; 100; 10 and 1 μM and D-mannose was tested at a dose of 10 000; 1 000; 100 or 10 μM. Cells were infected with AIEC LF82 bacteria at a multiplicity of infection (MOI) of 10 bacteria per cell for 3 h at 37° C.
For the post-incubation protocol, monovalent compounds (same doses than in the pre- and co-incubation assays) were incubated with cells for 3 h after bacterial infection. A washing step was realized before this post-incubation to eliminate non-adherent bacteria.
Monolayers were washed in phosphate-buffered saline (PBS; pH 7.2) and cells were then lysed with 1% Triton X-100 in deionized water. […] Results were expressed as percentages of residual adhesion, considering adhesion level of AIEC LF82 without mannosides treatment as 100%.
D-mannose, compounds 5 and 10 were assessed as putative inhibitors to compete the interaction of CEACAM6 expressed by T84 intestinal epithelial cells with the adhesin FimH of AIEC bacteria following three different protocols: pre-, co- and post-incubation experiments (FIG. 1).

Data set [2] relates to HUV-EC-C, CCD-18Co, MRC-5 and PWR-1E normal cell lines. The format is cell-based, Human. The protocol: Compounds 10 and 22′ were extemporaneously dissolved at 100 mM in water to obtain a stock solution.
The final concentrations of compounds 10 and 22′ were 100 nM, 1 μM, 10 μM, 100 μM and 1 mM within wells.
The 4 cell lines were plated at optimal density per well in 96-well plates. Plates were incubated at 37° C. for 24 hours before treatment, in drug-free culture medium.
Cell lines were then incubated for 96 hours at 37° C. under 5% CO2 with the 5 concentrations of compounds 10 or 22′ in 1:10 dilution steps. Each concentration was done in triplicate. Control cells were treated with vehicle alone (water).
The dose response for index of cytotoxicity (IC) is expressed as following: […]
IC50 represents the drug concentration required to obtain 50% of cellular cytotoxicity. The
IC50 determination values were calculated from semi-log curves.

These results are taken from patent US10632135B2, “Orally available compounds, a process for preparing the same and their uses as anti-adhesive drugs for treating E. coli induced inflammatory bowel diseases such as crohn's disease” (CENTRE NATIONAL DE LA RECHERCHE SCIENTIFIQUE, priority 2014, dated 2020).

Consider `O=C[C@@H](O)[C@@H](O)[C@H](O)[C@H](O)CO` [D-mannose], for which the “concentration at which a significant decrease in the bacterial adhesion level was obtained” value in data set [1] (co-incubation protocol, LF82 MOI 10, 3 h, T84 cells) is reported as 1 000 μM. Moreover, in data set [1] (post-incubation protocol), the “dose at which adhesion was decreased” value is 10 mM. The “concentration showing a significant inhibitory effect on the bacterial adhesion” value in data set [1] (pre-incubation protocol (bacteria incubated 1 h with compound before infection)) stood at 100 µM.
For `CC(=O)O[C@@]12CO[C@@H]1C[C@H](O)[C@@]1(C)C(=O)[C@H](O)C3=C(C)[C@@H](OC(=O)[C@H](O)[C@@H](NC(=O)OC(C)(C)C)c4ccccc4)C[C@@](O)([C@@H](OC(=O)c4ccccc4)[C@H]21)C3(C)C` [Docetaxel], in data set [2], the “cytotoxicity values of the control compound” value is “consistent with known values of inherent toxicity”.
